From patent US7186749B2, “Pyrrolo-naphthyl acids and methods for using them” (Wyeth, priority 2004, dated 2007)

Key:
[1] = target: T1, recombinant human plasminogen activator inhibitor-1 (PAI-1) (Homo sapiens, UniProt P05121); test: Primary screen for PAI-1 inhibition (chromogenic tPA activity, Spectrozyme-tPA); assay type: biochemical; conditions: 140 nM PAI-1, 70 nM tPA, pH 6.6; for inhibition at 10 µM: test compound 10 μM; for inhibition at 25 µM: test compound 25 μM
T1 construct: purchased Molecular Innovations, Royal Oak, Mich
Description: Test compounds are dissolved in DMSO at a final concentration of 10 mM, then diluted 100× in physiologic buffer. The inhibitory assay is initiated by the addition of the test compound (1–100 μM final concentration, maximun DMSO concentration of 0.2%) in a pH 6.6 buffer containing 140 nM recombinant human plasminogen activator inhibitor-1 (PAI-1; Molecular Innovations, Royal Oak, Mich.). Following a 1 hour incubation at room temperature, 70 nM of recombinant human tissue plasminogen activator (tPA) is added, and the combination of the test compound, PAI-1 and tPA is incubated for an additional 30 minutes. Following the second incubation, Spectrozyme-tPA (American Diagnostica, Greenwich, Conn.), a chromogenic substrate for tPA, is added and absorbance read at 405 nm at 0 and 60 minutes. Relative PAI-1 inhibition is equal to the residual tPA activity in the presence of the test compound and PAI-1. Control treatments include the complete inhibition of tPA by PAI-1 at the molar ratio employed (2:1), and the absence of any effect of the test compound on tPA alone.

[2] = target: human PAI-1 (Homo sapiens, UniProt P05121); test: Antibody assay for determining IC50 of inhibition of PAI-1 (active PAI-1 bound to tPA-coated plate); assay type: binding; conditions: pH 7.5, human PAI-1 50 ng/ml
Description: This assay is based upon the non-SDS dissociable interaction between tPA and active PAI-1. Assay plates are initially coated with human tPA (10 μg/ml). Test compounds of the present invention are dissolved in DMSO at 10 mM, then diluted with physiologic buffer (pH 7.5) to a final concentration of 1–50 μM. Test compounds are incubated with human PAI-1 (50 ng/ml) for 15 minutes at room temperature. The tPA-coated plate is washed with a solution of 0.05% Tween 20 and 0.1% BSA, then the plate is blocked with a solution of 3% BSA. An aliquot of the pyrrolo-naphthyl/PAI-1 solution is then added to the tPA-coated plate, incubated at room temperature for 1 hour, and washed. Active PAI-1 bound to the plate is assessed by adding an aliquot of a 1:1000 dilution of the 33B8 monoclonal antibody against human PAI-1, and incubating the plate at room temperature for 1 hour (Molecular Innovations, Royal Oak, Mich.). The plate is again washed, and a solution of goat anti-mouse IgG-alkaline phosphatase conjugate is added at a 1:50,000 dilution in goat serum. The plate is incubated 30 minutes at room temperature, washed, and a solution of alkaline phosphatase substrate is added. The plate is incubated 45 minutes at room temperature, and color development is determined at OD405 nm. The quantitation of active PAI-1 bound to tPA at varying concentrations of the test compound is used to determine the IC50. Results are analyzed using a logarithmic best-fit equation. The assay sensitivity is 5 ng/ml of human PAI-1 as determined from a standard curve ranging from 0–100 ng/ml.

T1 sequence (P05121 24-402): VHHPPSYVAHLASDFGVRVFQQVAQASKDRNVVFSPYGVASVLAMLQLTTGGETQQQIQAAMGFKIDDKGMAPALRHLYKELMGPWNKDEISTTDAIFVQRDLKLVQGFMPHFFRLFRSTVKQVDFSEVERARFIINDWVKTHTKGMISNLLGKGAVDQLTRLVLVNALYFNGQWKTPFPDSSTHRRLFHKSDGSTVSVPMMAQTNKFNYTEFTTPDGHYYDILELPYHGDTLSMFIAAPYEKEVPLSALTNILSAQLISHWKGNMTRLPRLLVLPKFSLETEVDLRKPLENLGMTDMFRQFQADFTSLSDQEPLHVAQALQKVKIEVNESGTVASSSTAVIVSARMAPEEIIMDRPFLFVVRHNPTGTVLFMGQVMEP
human PAI-1, sequence (P05121 24-402): as above

Row | SMILES | melting point | inhibition at 10 µM [1] [%] | inhibition at 25 µM [1] [%] | IC50 [2] [µM]
1 | O=C(O)COc1ccc2cc(-c3ccc(-c4ccccc4)n3Cc3ccc(C(F)(F)F)cc3)ccc2c1 [Example 10, [(6-{5-Phenyl-1-[4-(trifluoromethyl)benzyl]-1H-pyrrol-2-yl}-2-naphthyl)oxy]acetic acid] | 154 to 156 °C | 29 | 55 | –
2 | O=C(O)C(Cc1ccccc1)Oc1ccc2cc(-c3ccc(-c4ccccc4)n3-c3ccccc3)ccc2c1 (stereo not drawn) [Example 13, 2-{[6-(1,5-diphenyl-1H-pyrrol-2-yl)-2-naphthyl]oxy}-3-phenylpropanoic acid] | 194 to 196 °C (dec.) | 33 | 60 | –
3 | O=C(O)COc1ccc2cc(-c3ccc(-c4ccccc4)n3Cc3ccccc3)ccc2c1 [Example 6, {[6-(1-benzyl-5-phenyl-1H-pyrrol-2-yl)-2-naphthyl]oxy}acetic acid] | 171 to 172 °C | 14 | 74 | –
4 | O=C(O)c1ccc(COc2ccc3cc(-c4ccc(-c5ccccc5)n4Cc4ccc(C(F)(F)F)cc4)ccc3c2)c(C(=O)O)c1 [Example 16, 4-{[(6-{5-phenyl-1-[4-(trifluoromethyl)benzyl]-1H-pyrrol-2-yl}-2-naphthyl)oxy]methyl}isophthalic acid] | 250 to 252 °C | 40 | 63 | –
5 | c1ccc(-c2ccc(-c3ccc4cc(OCc5nnn[nH]5)ccc4c3)[nH]2)cc1 [Example 3, 5-({[6-(5-phenyl-1H-pyrrol-2-yl)-2-naphthyl]oxy}methyl)-1H-tetraazole] | 237 to 240 °C (dec.) | 15 | 52 | 33
6 | Cn1c(-c2ccccc2)ccc1-c1ccc2cc(OCc3nnn[nH]3)ccc2c1 [Example 5, 5-({[6-(1-methyl-5-phenyl-1H-pyrrol-2-yl)-2-naphthyl]oxy}methyl)-1H-tetraazole] | 231 to 233 °C (dec.) | 15 | 32 | –
7 | O=C(O)C(Cc1ccccc1)Oc1ccc2cc(-c3ccc(-c4ccccc4)n3Cc3ccc(C(F)(F)F)cc3)ccc2c1 (stereo not drawn) [Example 8, 3-phenyl-2-[(6-{5-phenyl-1-[4-(trifluoromethyl)benzyl]-1H-pyrrol-2-yl}2-naphthyl)oxy]propanoic acid] | 153 to 155 °C | 43 | 62 | –
8 | O=C(O)C(Cc1ccccc1)Oc1ccc2cc(-c3ccc(-c4ccccc4)n3Cc3ccccc3)ccc2c1 (stereo not drawn) [Example 2, 2-{[6-(1-benzyl-5-phenyl-1H-pyrrol-2-yl)-2-naphthyl]oxy}-3-phenylpropanoic acid] | 70 to 80 °C | 37 | 66 | 16.1
9 | FC(F)(F)c1ccc(Cn2c(-c3ccccc3)ccc2-c2ccc3cc(OCc4nnn[nH]4)ccc3c2)cc1 [Example 9, 5-{[(6-{5-Phenyl-1-[4-(trifluoromethyl)benzyl]-1H-pyrrol-2-yl}-2-naphthyl)oxy]methyl}-1H-tetraazole] | 173 to 175 °C | 31 | 49 | –
10 | O=C(O)COc1ccc2cc(-c3ccc(-c4ccccc4)n3-c3ccccc3)ccc2c1 [Example 12, {[6-(1,5-diphenyl-1H-pyrrol-2-yl)-2-naphthyl]oxy}acetic acid] | 258 to 260 °C (dec.) | 48 | 58 | –
11 | c1ccc(-c2ccc(-c3ccc4cc(OCc5nnn[nH]5)ccc4c3)n2-c2ccccc2)cc1 [Example 11, 5-({[6-(1,5-diphenyl-1H-pyrrol-2-yl)-2-naphthyl]oxy}methyl)-1H-tetraazole] | 269 to 270 °C (dec.) | 30 | 68 | –
12 | O=C(O)c1ccc(COc2ccc3cc(-c4ccc(-c5ccccc5)n4Cc4ccc(C(F)(F)F)cc4)ccc3c2)cc1 [Example 14, 4-{[(6-{5-phenyl-1-[4-(trifluoromethyl)benzyl]-1H-pyrrol-2-yl}-2-naphthyl)oxy]methyl}benzoic acid] | 228 to 229 °C | 23 | 31 | –
13 | O=C(O)c1ccc(COc2ccc3cc(-c4ccc(-c5ccccc5)[nH]4)ccc3c2)c(C(=O)O)c1 [Example 17, 4-({[6-(5-phenyl-1H-pyrrol-2-yl)-2-naphthyl]oxy}methyl)isophthalic acid] | 289 to 291 °C | 18 | 44 | –
14 | Cn1c(-c2ccccc2)ccc1-c1ccc2cc(OC(Cc3ccccc3)C(=O)O)ccc2c1 (stereo not drawn) [Example 7, 2-{[6-(1-methyl-5-phenyl-1H-pyrrol-2-yl)-2-naphthyl]oxy}-3-phenylpropanoic acid] | 171 to 173 °C | 30 | 95 | –
15 | O=C(O)c1ccc(COc2ccc3cc(-c4ccc(-c5ccccc5)n4-c4ccccc4)ccc3c2)cc1 [Example 15, 4-({[6-(1,5-diphenyl-1H-pyrrol-2-yl)-2-naphthyl]oxy}methyl)benzoic acid] | 309 to 310 °C | 30 | 68 | –
16 | O=C(O)C(Cc1ccccc1)Oc1ccc2cc(-c3ccc(-c4ccccc4)[nH]3)ccc2c1 (stereo not drawn) [Example 1, 3-phenyl-2-{[6-(5-phenyl-1H-pyrrol-2-yl)-2-naphthyl]oxy}propanoic acid] | 176 to 178 °C | 12 | 78 | 44.4
17 | c1ccc(Cn2c(-c3ccccc3)ccc2-c2ccc3cc(OCc4nnn[nH]4)ccc3c2)cc1 [Example 4, 5-({[6-(1-benzyl-5-phenyl-1H-pyrrol-2-yl)-2-naphthyl]oxy}methyl)-1H-tetraazole] | 190 to 200 °C (dec.) | 11 | 67 | –
